A short description of this series: gradient 5% acetonitrile 3 min, to 50% in 2 min, to 85% in 15 min, held 3 min, 100 µL/min. As to conditions: column: Zorbax Extend-C18 2.1 x 50 mm; eluents: water / acetonitrile, 0.1% formic acid. The essentials: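 Over 3 months, pure standards in mixtures of ~100 molecules were run by HPLC coupled to a quadrupole time-of-flight mass spectrometer in positive and negative ionization mode. The column was a Zorbax Extend-C18 (2.1 × 50 mm, 1.8 μm) at 100 μL/min, eluted with water and acetonitrile each holding 0.1% formic acid, with 40 μL dead and 900 μL dwell volumes. Retention time was determined from adduct peaks chosen by software and checked manually.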
Take `CC(C)n1c(=O)c2ccccc2n(Cc2nc(-c3cccc(Br)c3)no2)c1=O`: the RP-LC retention time amounted to 1250 s.
Regarding `CNS(=O)(=O)c1cccnc1Nc1cc(C)cc(C)c1`, the RP-LC retention time amounted to 990 s.
For `CSc1ccccc1NC(=O)c1cc(=O)c(OCc2ccc(F)cc2)co1`, the RP-LC retention time stood at 859 s.
With `O=C(NCCN1CCC(Cc2ccccc2)CC1)c1ccc2c(c1)NC(=O)C1CCCCN21` (stereo not given), the RP-LC retention time is 693 s.
In the case of `CC1CN(C(=O)N2CCC(C(=O)N3CCC(C(N)=O)CC3)CC2)c2cc(Cl)ccc2O1` (stereo not given), the RP-LC retention time came out at 679 s.
As for `CCN1C(=O)C2(CCN(S(=O)(=O)c3c(C)noc3C)CC2)c2ccccc21`, the RP-LC retention time stood at 731 s.
Molecule `COc1cccc(CNc2ccc(-c3nc(-c4ccc(F)cc4)no3)cn2)c1` returned an RP-LC retention time of 1180 s.
Then `CC(C)NC(=O)N(C1CC1)C1CCOC2(CCN(C(=O)C3CC3)CC2)C1` (stereo not given), with 688 s.
Under `Cc1ccnc(Nc2nc(CC(=O)N3CCN(S(C)(=O)=O)CC3)cs2)c1` stands 565 s.
Under `Cc1ccsc1C(=O)N1CCCn2nc(-c3ccncc3)cc2C1` stands 602 s; under `COCc1nncn1C1CCN(C(=O)C2(c3ccccc3)CC2)CC1`, 650 s.
Molecule `COc1ccc(NC(=O)C(C)C2CCN(C(=O)Nc3ccc(Cl)cc3)CC2)cc1` (stereo not given) yielded an RP-LC retention time of 854 s.
`Cn1cc(CN2CCC(C(=O)NC3CCCC3)CC2)c2cc(Cl)ccc21` gave an RP-LC retention time of 692 s.
`COc1ccc(S(=O)(=O)NCCCCN2CCOC(c3ccccc3)C2)c(C)c1` (stereo not given): the RP-LC retention time was 600 s.
Then `COc1ccc(NC(=O)N2CCC(n3cnc4ccc(Cl)cc4c3=O)CC2)cc1`, with 802 s; and `CCCNC(=O)C(=O)NCC(c1ccc2c(c1)OCO2)N1CCOCC1` (stereo not given), with 595 s; and `CCCN1CCn2cc(S(=O)(=O)Nc3ccc(OC)cc3)cc2C1=O`, with 715 s.
Under `O=S(=O)(Nc1ccc(F)cc1)c1ccc2c(c1)-c1oncc1CO2` stands 866 s; under `Cc1cc(NC(=O)C2CCN(C(=O)c3cnn(-c4ccccc4)n3)CC2)no1`, 847 s.
Then `Cc1ccc(C)c(NS(=O)(=O)c2cc(-c3[nH]ncc3C(=O)N3CCCC3)oc2C)c1`, with 760 s; and `COc1ccc(Cl)cc1NC(=O)Cn1cnc2nc3c(cc2c1=O)CCCC3`, with 798 s; and `CCC1CCCCN1CCCNC(=O)Cn1ccc2cc(S(=O)(=O)N3CCCCCC3)ccc21` (stereo not given), with 704 s.
As to `CCN1CCN(c2cc(C)c3cc(NC(=S)NCc4cc(OC)ccc4OC)ccc3n2)CC1`, the RP-LC retention time came to 598 s.
`CCCc1ccc(S(=O)(=O)N2CCC(C(=O)NCc3csc(-c4ccccc4)n3)CC2)cc1` displayed an RP-LC retention time of 1090 s.
`CCOc1ccc2nc(NC(=O)C3CCN(C(=O)c4ccc(-c5noc(C)n5)cc4)CC3)sc2c1` registered an RP-LC retention time of 875 s.
Then `Cc1ccc(-n2nc(N3CCCC(C(=O)NCc4ccc(OC(C)C)cc4)C3)ccc2=O)cc1Cl` (stereo not given), with 999 s; and `O=S(=O)(c1ccc(F)cc1)N1[C@H]2CC[C@@H]1c1cncnc1C2`, with 709 s; and `CN(C)S(=O)(=O)c1ccc(-c2nnc(C(=O)NCc3ccc(Br)cc3)o2)cc1`, with 912 s.
Then `CCOc1ccc(-n2ccn3cc(-c4ccc(C)c(C)c4)nc3c2=O)cc1`, with 938 s; and `Cn1nc(-c2nnc(-c3ccc(F)cc3)o2)c2c1CCN(S(=O)(=O)c1ccccc1Cl)C2`, with 990 s.
Under `C=C(C)[C@@H]1CC=C(C(=O)O)CC1` stands 875 s.
`COCCCN1C(=O)c2ccc(-c3ccco3)n2CC1(C)C(=O)NCc1ccccc1` (stereo not given) had an RP-LC retention time of 817 s.
`COCCn1cc2c3c(cccc31)CN(C(=O)Nc1ccc(C)cc1C)CC2` returned an RP-LC retention time of 970 s.
`CCNC(=O)c1nc(-c2ccncc2)cs1`: the RP-LC retention time came out at 574 s.
On to `CCc1ccc(C(C)NC(=O)C2CCN(c3nnc(-c4ccc(OC)cc4)o3)CC2)cc1` (stereo not given), for which the RP-LC retention time amounted to 943 s.
In turn, `CN1CCN(C(=O)CN2C(=O)C3CCCCN3c3ccc(S(=O)(=O)N4CCCC4)cc32)CC1` (stereo not given) registered an RP-LC retention time of 631 s.
As for `Cc1nc(C)c(-c2ccc(=O)n(CCNC(=O)c3ccno3)n2)s1`, the RP-LC retention time was 585 s.
Molecule `CCn1nnc2cc(-c3noc(CNC(=O)c4ccccc4)n3)ccc21` registered an RP-LC retention time of 772 s.
In the case of `Cc1ccc(C)c(NC(=O)C2CCCN(c3cn[nH]c(=O)c3)C2)c1` (stereo not given), the RP-LC retention time stood at 668 s.
Under `COC(=O)C(NC(=O)N1CCCn2nc(-c3ccncc3)cc2C1)c1ccccc1` (stereo not given) stands 606 s; under `Cc1ccccc1CN1N=C(C(=O)N2CCCCC2)S(=O)(=O)c2ccccc21`, 1010 s.
Then `COCCn1cnc2c(-c3ccccc3)cn(CC(=O)NCC3CCCO3)c2c1=O` (stereo not given), with 678 s.
In turn, `CCC(=O)NCc1csc(C2CCCN(C(=O)COc3ccccc3)C2)n1` (stereo not given) showed an RP-LC retention time of 710 s.
As for `CC1CCCCN1CCNC(=O)CCCn1c(=O)c2cccn2c2ccccc21` (stereo not given), the RP-LC retention time was 621 s.
The molecule `CCOc1cc2c(cc1OCC)C1C(C(=O)N3CCN(C)CC3)c3ccccc3C(=O)N1CC2` (stereo not given) returned an RP-LC retention time of 567 s.
Regarding `O=C(Cn1nc2c(N3CCSCC3)nccn2c1=O)NC1CCCC1`, the RP-LC retention time is 722 s.
Under `O=C(NCc1cc(-c2cc3ccccc3o2)on1)c1ccc2c(c1)OCO2` stands 856 s.
Consider `COc1ccc(CNS(=O)(=O)c2ccc(-c3c(C)noc3C)cc2)cc1`, for which the RP-LC retention time was determined as 886 s.
`CCN1CCN(c2ncnc3c2cnn3-c2ccccc2Cl)CC1`: the RP-LC retention time was determined as 582 s.
Then `O=C(O)CCNS(=O)(=O)c1ccc(Cl)c(-c2nnc(-c3ccccc3)o2)c1`, with 781 s.
`COc1ccc(CC(=O)N2CCN(c3cc(C)n4cnnc4n3)CC2)cc1OC` returned an RP-LC retention time of 578 s.
As for `COc1ncc(C(=O)NCCc2ccc(S(N)(=O)=O)cc2)cn1`, the RP-LC retention time was determined as 608 s.
Under `CC(C)c1noc(-c2cc(=O)n(CC(=O)Nc3cccc(F)c3)c3ccccc23)n1` stands 1020 s.
`O=C(NC1CC1)[C@@H]1C[C@H](Oc2cccnc2)CN1C(=O)c1ccsc1`: the RP-LC retention time was found to be 630 s.
Under `COc1ccc(OC)c(NC(=O)N(C)CCc2noc(COc3ccc(Cl)cc3)n2)c1` stands 1000 s; under `CCCN1C(=O)c2cc(S(=O)(=O)NCCc3cccs3)ccc2Oc2cccnc21`, 1050 s; under `CCOc1ccc(-c2ccc(=O)n(CCNC(=O)c3sc(C)nc3C)n2)cc1`, 672 s.
Then `Cc1cc2c(=O)n(CC(=O)Nc3ccc4c(c3)OCCO4)c3cccnc3n2n1`, with 693 s; and `CC(C)c1ccc(NC(=O)Cn2nc3n(c2=O)CCCCC3)cc1`, with 779 s.
Under `COc1ccc(OCC(=O)N2CCN(c3cc(=O)n(C(C)C)c(=O)n3C(C)C)CC2)cc1` stands 846 s; under `O=C(C1CCOC1)N1CCC(CCOc2cccc(F)c2)CC1` (stereo not given), 834 s; under `COC(=O)c1c(-c2ccc(Cl)cc2)noc1NCCN1CCN(C)CC1`, 660 s.
As for `COc1ccccc1C(=O)N1CCC2(CC1)N=C(c1ccc(Br)cc1)C(=O)N2`, the RP-LC retention time came to 863 s.
Under `Cc1nn(-c2ccc(F)cc2)c(C)c1S(=O)(=O)N1CCC(C(=O)NCc2cccs2)CC1` stands 861 s; under `COCCc1noc(-c2nc(-c3ccc(C)cc3)no2)n1`, 1120 s.
Then `Nc1cc([N+](=O)[O-])ccc1N1C(=O)CCCC1=O`, with 650 s; and `O=C(Cc1ccc(Cl)cc1)NC1CCN(c2nnc3ccccn23)CC1`, with 656 s.
For `CC(=O)Nc1c(-c2ccccn2)nsc1C(=O)N1CCC(C)CC1`, the RP-LC retention time is 849 s.
Under `Cc1nc2cc(-c3noc(-c4cc(F)ccc4F)n3)ccc2o1` stands 1070 s; under `O=C(Cc1ccc(F)cc1)NCC(=O)N1CCOC(c2ccccc2)C1` (stereo not given), 646 s; under `Cc1ccc(NC(=O)Cc2c(C(=O)O)c(C)cn2C)c(C)c1`, 771 s.
Then `COc1ccccc1-c1nc(Cn2nnc(-c3nc(-c4ccccc4)no3)c2C)c(C)o1`, with 1140 s; and `COc1ccc(NC(=O)NC(C)C(=O)N2CCc3ccccc32)c(OC)c1` (stereo not given), with 859 s.
In the case of `Cc1ccc(NS(=O)(=O)c2ccc3c(c2)CCCC(=O)N3)cc1Cl`, the RP-LC retention time was 806 s.
Take `O=C(NCc1cccs1)C1CN(S(=O)(=O)c2cccnc2)CC12CCCCC2` (stereo not given): the RP-LC retention time worked out at 856 s.
Then `CCn1cc2c3c(cccc31)CN(C(=O)Nc1ccc(OC)c(Cl)c1)CC2`, with 977 s.
For the molecule `CCc1cc(N2CCN(C(=O)c3ccc(N(C)C)cc3)CC2)nc2nnc(C)n12`, the RP-LC retention time came out at 599 s.
Then `CSc1ccc(NC(=O)N2CCN(c3cnn4c(C)nnc4c3)CC2)cc1`, with 576 s.
`CCOC(=O)COc1ccccc1C1CC(c2cccs2)=NN1C(=O)c1ccco1` (stereo not given) displayed an RP-LC retention time of 941 s.
Then `Cc1ccc(C(=O)NCCc2ncc(C)n2C2CCC2)s1`, with 564 s.

Source of the values: the METLIN SMRT retention time set (Domingo-Almenara et al. 2019).
